Data on three molecules can be found in US9192618B2, “Method of treating constipation-predominant irritable bowel syndrome” (Cedars-Sinai Medical Center, priority 2002, dated 2015).

Assay [1] relates to IBS. The note with it: literature report (ref. 21); cited from earlier work.
Assay [2] has as its system intestinal transit in dogs. In words: Intestinal transit in dogs with duodenal and mid-gut fistulas after bolus delivery of gas to the distal gut (99mTc-DTPA recovery). The format is in vivo. The following applies: 180 ml bolus to the distal gut at time 0, n=three dogs. As to the method:
In dogs equipped with duodenal (10 cm from pylorus) and mid-gut (160 cm from pylorus) fistulas, intestinal transit was compared across an isolated 150 cm test segment (between fistulas) while the proximal segment of the gut was perfused with pH 7.0 phosphate buffer at 2 mL/min for 90 minutes. Room air (n=three dogs) or methane (n=three dogs) was delivered into the distal gut as a 180-ml bolus at time 0. Sixty minutes after the start of the perfusion, 20 μCi of ^99mTc-DTPA (diethylenetriaminepentaacetic acid) was delivered as a bolus into the proximal segment of the gut. Intestinal transit was then measured by counting the radioactivity of 1 ml samples collected every 5 minutes from the diverted output of the mid-gut fistula. Intestinal transit was calculated by determining the area under the curve (AUC) of the cumulative percent recovery of the radioactive marker in the control (air administration) and experimental (methane administration) dogs. The square root values of the AUC (Sqrt AUC), where 0=no recovery by 30 minutes and 47.4=theoretical, instantaneous complete recovery by time 0, were compared for the control and experimental animals, using 2-way repeated measures ANOVA.

Assay [3] deals with irritable bowel syndrome (IBS) subjects. Briefly: Double-blind, randomized, placebo-controlled study of neomycin in IBS subjects (symptom questionnaire and lactulose breath test). Format: in vivo, human. The following applies: for patient-reported bowel normalization / reduction in composite score (CS): mean ± S.E. The text has this: In a double-blind, randomized, placebo-controlled study, we confirm that an abnormal lactulose breath test is more prevalent in IBS than normal controls, and that antibiotic treatment in IBS leads to an improvement in symptoms and that this is based on antibiotic-induced normalization of breath test. […] This is another important step in linking SIBO and IBS.
Study subjects were recruited by advertising in local newspapers, radio and IBS support groups throughout the greater Los Angeles area. To avoid referral bias, subjects were not recruited through the GI motility clinic or any gastroenterology practice based at Cedars-Sinai Medical Center. Subjects were included if they met Rome I criteria for IBS (7). […] Subjects were excluded if they had antibiotics within the previous three months, a previous lactulose breath test (LBT), or a history of diabetes, thyroid disease, intestinal surgery (except cholecystectomy or appendectomy), connective tissue disease, narcotic use or known gastrointestinal disease. Subjects with renal insufficiency, hearing impairment, probiotic use or allergy to aminoglycosides were also excluded. Approval from the institutional review board and written informed consent from the participating subjects were obtained.
Subjects presented to the GI Motility Laboratory having fasted from 7:00 p.m. the night before. They were instructed not to ingest legumes or a heavy meal for dinner the night prior to evaluation. Good oral hygiene was recommended and smoking was not permitted on the day of testing.
Prior to the LBT, subjects completed a symptom questionnaire asking them to grade nine IBS symptoms (abdominal pain, diarrhea, constipation, bloating, sense of incomplete evacuation, straining, urgency, mucus and gas) on a severity score of 0-5 as has been previously used and recommended (15-17). All questions were answered based on their recall of the preceding 7 days (17).
Subjects then underwent a LBT by ingesting 10 g of lactulose (Inalco Spa, Milano, Italy, packaged by Xactdose Inc., South Beloit, Ill.) followed by 1-2 ounces of water after an initial baseline breath sample. Breath samples were then collected at 15 minute intervals for 180 minutes. End expiratory breath samples were taken to ensure alveolar gas sampling. Samples were analyzed for hydrogen, methane and carbon dioxide using a Model SC, Quintron gas chromatograph (Quintron Instrument Company, Milwaukee, Wis.). Carbon dioxide measurements were used to correct for the quality of alveolar sampling. Measurements were plotted graphically as previously described (12). Patients and investigators were blinded to the result of the breath test.
All subjects were randomized by personnel not associated with the study to receive, in a double blind fashion, either neomycin (500 mg) (Teva pharmaceuticals, USA, Sellersville, Pa.) or matching placebo twice daily for 10 days. Seven days after completion of the antibiotic or placebo, subjects returned for a repeat questionnaire and LBT. A seven day follow up was chosen since in our experience the abnormal breath test in IBS can recur as early as two weeks after antibiotic normalization. As part of the follow up questionnaire, subjects were asked to subjectively rate the amount of improvement they experienced as a percent normalization of bowel function and repeated their perceived severity of the 9 bowel symptoms described earlier. Compliance was assessed by pill count. To comply with institutional review board requirements, follow-up LBT results could not be blinded so patients could seek appropriate medical therapy for their test result.
At the completion of enrollment, all initial and follow-up breath tests were coded and randomized by personnel not involved in the interpretation of the test. A blinded reviewer (M.P.) interpreted the results and was asked to categorize the breath tests based on whether the test met the criteria for normal LBT. […]

As for `Cc1ncc([N+](=O)[O-])n1CCO` [flagyl], the “reduction of clinical symptoms in IBS versus placebo” value in assay [1] is reported as “superior to placebo”.

Turning to `C` [methane], the “effect on rate of intestinal transit versus room air control” value in assay [2] is “substantially slowed the rate of intestinal transit”; in assay [2] (listed as Methane), “slowed intestinal transit”.

In the case of neomycin, the values for the patient-reported bowel normalization in assay [3] (91 subjects who completed the question) and in assay [3] (subgroup with abnormal initial breath tests) were 40.1±5.3% and 44.8±5.6%, respectively. Further, the “subjects achieving normalization of LBT” value in assay [3] (abnormal baseline LBT, complete data, 8 out of 41) was determined as 20%. Also, the “self-reported percent bowel normalization” value in assay [3] (abnormal baseline LBT, neomycin but not successful normalization of LBT) turned out to be 36.7±6.1%; in assay [3] (abnormal baseline LBT, normal follow up LBT after neomycin), 75.0±6.4%. Besides, the “percent reduction in CS” value in assay [3] (abnormal baseline LBT, neomycin-treated group that did not achieve LBT normalization) amounted to 34.4±6.2%; in assay [3] (abnormal baseline LBT, neomycin-treated group with LBT normalization), 61.7±9.4%. Further, the “subjects with true clinical response (≧50% improvement in CS)” value in assay [3] (all subjects receiving neomycin, 24 out of 55) was determined as 43%; in assay [3] (subgroup with abnormal breath tests, 21 out of 46), 46%. In addition, the “odds ratio of true clinical response (≧50% improvement in CS) versus placebo” value in assay [3] (all subjects, CI=1.05-6.3) was 4.3; in assay [3] (subgroup with abnormal breath tests, CI=1.62-14.7), 4.8. In addition, the “reduction in composite score (CS)” value is given as 35.0±0.7% in assay [3] (intention-to-treat, all subjects (n=111), neomycin 500 mg twice daily for 10 days) and 35.4±0.8% in assay [3] (subgroup with abnormal baseline LBT (n=93)). The “reduction in composite score (CS) versus placebo” value in assay [3] (subjects with a normal baseline breath test) is listed as “No difference”. The “subjects with true clinical response (≧50% reported bowel normalization)” value was determined as 55% in assay [3] (subjects with abnormal initial breath test) and 50% in assay [3] (whole group who answered the question (n=91)). Besides, the “odds ratio of true clinical response (≧50% reported bowel normalization) versus placebo” value in assay [3] (subjects with abnormal initial breath test, CI=2.5-39.7) is 9.6; in assay [3] (whole group who answered (n=91), CI=1.7-14.4) it was 4.8. Moreover, in assay [3] (subjects with normal follow up LBT after neomycin, 7 out of 8), the “subjects reporting more than 50% normalization of bowel function” value was 88%.
